The nature of assay [1]: Antioxidant activity assessed as superoxide radical anion scavenging activity after 8 mins. In kind it is functional.
A short description of assay [2]: Protective effect against Fe2+/H2O2 radical-induced supercoiled DNA breakage at 1 mM.
Assay [3] can be described thus: Antioxidant activity assessed as ABTS radical scavenging activity after 12 hrs. Type of assay: functional.
For assay [4], the system named is Radical scavenging activity. In words: Antioxidant activity assessed as DPPH radical scavenging activity after 10 mins. Type of assay: functional.

Structures are written as SMILES. Calls of active or inactive are those of the source. The calls are words filed in the database; no cut-off is given here. A value given as a limit tells only on which side of the number the result lay.

Usually EC50 stands for the concentration giving half of the maximal effect.

Turning to `C/C=C/c1cc2c(c(=O)o1)-c1c(O)c(O)c(OC)c(C(=O)O)c1C(OC)O2` (stereo not drawn) [CYATHUSCAVIN B], the EC50 came out at 25.1 µM in assay [1], 9.84 µM in assay [3] and 13.9 µM in assay [4]. This molecule returned an Activity in assay [2] of 90%.
On to `C/C=C/c1cc2c(c(=O)o1)-c1c(O)c(O)c(OC)c(C(=O)O)c1CO2` [CYATHUSCAVIN A], for which the EC50 in assay [1] was determined as 21.9 µM; in assay [3] it was 14.8 µM; in assay [4], 19.3 µM. Also, the Activity in assay [2] worked out at 70%.
`Cc1c(C)c2c(c(C)c1O)CCC(C)(C(=O)O)O2` (stereo not drawn) [TROLOX]: in assay [1], the outcome was inactive. The values for the EC50 in assay [3] and in assay [4] were 11.8 µM and 22.1 µM, respectively.
On to `C/C=C/c1cc2c(c(=O)o1)-c1c(O)c(O)c(OC)c(C(=O)O)c1C(O)O2` (stereo not drawn) [CYATHUSCAVIN C], for which the outcome in assay [1] was inactive. Further, the Activity in assay [2] was determined as 70%. The EC50 in assay [3] was found to be 7.08 µM; in assay [4] it was 19.6 µM.
As to `C/C=C/c1cc(O)cc(=O)o1`, the result in assay [1] was inactive. Also, the EC50 in assay [3] is above 50 µM; in assay [4], above 100 µM.

These data come from ChEMBL document CHEMBL1155035, “Cyathuscavins A, B, and C, new free radical scavengers with DNA protection activity from the Basidiomycete Cyathus stercoreus” (Bioorg Med Chem Lett, 2008).
